In data set [1] the test system is 786-0. The experiment in a line: Antiproliferative activity against human 786-0 cells assessed as cell growth inhibition measured for 72 hrs by MTT assay. The format is functional, cell-based. Conditions: 786-0, 72 h. A general note: Formazan colour is commonly taken as a measure of viable cells.
Data set [2] deals with 4T1. The experiment in a line: Antiproliferative activity against mouse 4T1 cells assessed as cell growth inhibition measured for 72 hrs by MTT assay. Conditions: 4T1, 72 h. The format is functional, cell-based.
In data set [3] the test system is PANC-1. The experiment in a line: Antiproliferative activity against human PANC-1 cells assessed as cell growth inhibition measured for 72 hrs by MTT assay. The format is functional, cell-based. Conditions: PANC-1, 72 h.
The test system of data set [4] is HGC-27. The experiment in a line: Antiproliferative activity against human HGC-27 cells assessed as cell growth inhibition measured for 72 hrs by MTT assay. Type of data set: functional, cell-based. As to conditions: HGC-27, 72 h.
Data set [5] relates to MCF7. The experiment in a line: Antiproliferative activity against human MCF7 cells assessed as cell growth inhibition measured for 72 hrs by MTT assay. Type of data set: functional, cell-based. As to conditions: MCF7, 72 h.
Data set [6] deals with T1, Hexokinase-2 (Mus musculus) (UniProt O08528).
T1 sequence (whole entry): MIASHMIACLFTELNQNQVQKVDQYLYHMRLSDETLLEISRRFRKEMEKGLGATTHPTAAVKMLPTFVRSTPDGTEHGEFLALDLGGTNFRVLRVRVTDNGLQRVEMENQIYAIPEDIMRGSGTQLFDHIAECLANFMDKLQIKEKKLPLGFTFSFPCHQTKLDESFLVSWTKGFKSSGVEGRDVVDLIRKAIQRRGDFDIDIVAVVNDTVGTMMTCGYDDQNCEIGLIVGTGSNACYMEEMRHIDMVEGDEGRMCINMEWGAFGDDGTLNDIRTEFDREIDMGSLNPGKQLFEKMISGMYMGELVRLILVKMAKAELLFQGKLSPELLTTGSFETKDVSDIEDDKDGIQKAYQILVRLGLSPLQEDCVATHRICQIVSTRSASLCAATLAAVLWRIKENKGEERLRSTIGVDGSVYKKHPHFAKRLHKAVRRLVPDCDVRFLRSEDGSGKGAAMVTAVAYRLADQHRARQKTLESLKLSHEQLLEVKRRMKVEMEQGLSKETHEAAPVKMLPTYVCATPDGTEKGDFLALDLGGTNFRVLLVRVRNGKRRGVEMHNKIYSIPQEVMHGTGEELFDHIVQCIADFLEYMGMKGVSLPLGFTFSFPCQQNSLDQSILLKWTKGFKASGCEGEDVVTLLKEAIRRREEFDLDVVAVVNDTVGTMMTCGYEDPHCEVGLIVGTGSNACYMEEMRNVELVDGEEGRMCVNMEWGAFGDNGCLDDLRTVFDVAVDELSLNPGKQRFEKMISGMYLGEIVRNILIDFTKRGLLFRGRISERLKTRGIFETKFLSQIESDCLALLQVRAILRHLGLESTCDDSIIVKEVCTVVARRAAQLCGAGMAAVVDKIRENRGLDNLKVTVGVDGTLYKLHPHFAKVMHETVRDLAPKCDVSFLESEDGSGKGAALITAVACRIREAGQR
The experiment in a line: Induction of HK2 degradation in mouse 4T1 cells at 20 uM measured for 36 hrs by Western blot analysis relative to control. The format is cell-based.

A short description of data set [7]: Drug uptake in mouse 4T1 cells assessed as drug internalization at 20 uM incubated for 36 hrs by immunofluorescence analysis. The format is ADME, cell-based. Conditions: 4t1, 36 h.
In data set [8] the test system is MCF7. The experiment in a line: Potency index, ratio of IC50 for lonidamine to test compound IC50 for human MCF7 cells assessed as cell growth inhibition measured for 72 hrs by MTT assay. The format is functional.
In data set [9] the test system is 4T1. The experiment in a line: Upregulation of HK2 protein expression in mouse 4T1 cells at 10 uM incubated for 6 hrs by Western blot analysis. The format is functional, cell-based. (Immunoblotting shows a protein as a band on a membrane.)
In data set [10] the test system is 4T1. The experiment in a line: Upregulation of HK2 protein expression in mouse 4T1 cells at 2 uM incubated for 6 hrs by Western blot analysis. The format is functional, cell-based.
The subject of data set [11] is PANC-1. The experiment in a line: Potency index, ratio of IC50 for lonidamine to test compound IC50 for human PANC-1 cells assessed as cell growth inhibition measured for 72 hrs by MTT assay. The format is functional.
Data set [12] has as its system 786-0. The experiment in a line: Potency index, ratio of IC50 for lonidamine to test compound IC50 for human 786-0 cells assessed as cell growth inhibition measured for 72 hrs by MTT assay. Type of data set: functional.
In data set [13] the target is Protein cereblon/Hexokinase-2 (Homo sapiens) (UniProt P52789+Q96SW2). The experiment in a line: PROTAC activity at CRBN/HK2 in human MDA-MB-231 cells assessed as HK2 degradation at 20 uM incubated for 36 hrs. Type of data set: cell-based.
The target of data set [14] is Protein cereblon/Hexokinase-2 (Mus musculus) (UniProt O08528+Q8C7D2). The experiment in a line: PROTAC activity at CRBN/HK2 in mouse 4T1 cells assessed as HK2 degradation at 20 uM incubated for 36 hrs. The format is cell-based.
In data set [15] the test system is 4T1. The experiment in a line: Induction of pyroptosis in mouse 4T1 cells assessed as viable cells at 20 uM incubated for 36 hrs by annexin V-FITC staining based flow cytometry analysis (reference value: 64 %). Conditions: read-out: Activity. Type of data set: functional. (In general: In flow cytometry, cells or beads pass a laser one at a time.)
The test system of data set [16] is 4T1. The experiment in a line: Induction of pyroptosis in mouse 4T1 cells assessed as early apoptotic cells at 20 uM incubated for 36 hrs by annexin V-FITC staining based flow cytometry analysis (reference value: 4.76 %). Type of data set: functional.
In data set [17] the test system is 4T1. The experiment in a line: Induction of pyroptosis in mouse 4T1 cells assessed as late apoptotic cells at 20 uM incubated for 36 hrs by annexin V-FITC staining based flow cytometry analysis (Rvb =13.6 %). Type of data set: functional.
The subject of data set [18] is 4T1. The experiment in a line: Induction of pyroptosis in mouse 4T1 cells assessed as dead cells at 20 uM incubated for 36 hrs by annexin V-FITC staining based flow cytometry analysis (Rvb =17.6 %). The format is functional.

Calls of active or inactive are those of the source. The calls are words filed in the database; no cut-off is given here. Residues, ends and D or L forms follow the SMILES beside them. *: point of attachment. Cbz = O=C(OCc1ccccc1)*

Protein cereblon/Hexokinase-2 (Homo sapiens), sequence (P52789 whole entry, looked up): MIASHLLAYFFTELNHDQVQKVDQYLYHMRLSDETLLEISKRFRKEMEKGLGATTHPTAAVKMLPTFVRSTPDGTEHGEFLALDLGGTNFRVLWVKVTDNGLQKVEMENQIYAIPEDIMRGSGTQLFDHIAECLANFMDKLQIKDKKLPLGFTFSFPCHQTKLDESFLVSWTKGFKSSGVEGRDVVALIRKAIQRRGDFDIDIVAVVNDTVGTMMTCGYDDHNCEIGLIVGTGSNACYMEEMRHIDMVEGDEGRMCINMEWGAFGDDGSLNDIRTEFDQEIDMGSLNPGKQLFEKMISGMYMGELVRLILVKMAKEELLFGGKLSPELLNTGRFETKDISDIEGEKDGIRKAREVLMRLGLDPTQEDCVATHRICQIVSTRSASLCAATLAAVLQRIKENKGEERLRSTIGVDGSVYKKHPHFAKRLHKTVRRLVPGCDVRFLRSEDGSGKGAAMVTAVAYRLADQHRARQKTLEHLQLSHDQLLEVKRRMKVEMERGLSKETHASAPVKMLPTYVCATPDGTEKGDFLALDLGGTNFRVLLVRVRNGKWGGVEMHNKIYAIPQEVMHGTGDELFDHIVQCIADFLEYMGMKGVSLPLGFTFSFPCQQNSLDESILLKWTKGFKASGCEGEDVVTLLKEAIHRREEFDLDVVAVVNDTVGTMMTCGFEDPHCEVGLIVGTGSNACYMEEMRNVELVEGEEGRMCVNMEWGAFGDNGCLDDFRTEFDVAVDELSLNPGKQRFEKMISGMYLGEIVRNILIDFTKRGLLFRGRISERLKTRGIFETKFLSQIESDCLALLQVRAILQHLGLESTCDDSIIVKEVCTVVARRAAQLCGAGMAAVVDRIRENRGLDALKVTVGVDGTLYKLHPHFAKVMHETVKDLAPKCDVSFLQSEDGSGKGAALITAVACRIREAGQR
Protein cereblon/Hexokinase-2 (Homo sapiens), sequence (Q96SW2 whole entry, looked up): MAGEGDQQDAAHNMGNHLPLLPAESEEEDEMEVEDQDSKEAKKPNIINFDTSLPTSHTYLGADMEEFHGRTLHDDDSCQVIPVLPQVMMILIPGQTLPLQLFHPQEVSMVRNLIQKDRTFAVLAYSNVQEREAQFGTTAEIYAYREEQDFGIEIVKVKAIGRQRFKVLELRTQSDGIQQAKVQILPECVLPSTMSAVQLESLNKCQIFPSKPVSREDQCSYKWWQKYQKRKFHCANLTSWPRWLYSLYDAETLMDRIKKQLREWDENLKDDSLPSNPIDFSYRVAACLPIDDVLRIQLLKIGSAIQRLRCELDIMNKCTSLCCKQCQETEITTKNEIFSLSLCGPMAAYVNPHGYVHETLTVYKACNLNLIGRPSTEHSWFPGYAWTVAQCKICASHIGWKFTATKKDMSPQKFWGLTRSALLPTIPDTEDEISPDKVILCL
Protein cereblon/Hexokinase-2 (Mus musculus), sequence (Q8C7D2 whole entry, looked up, one chain of several): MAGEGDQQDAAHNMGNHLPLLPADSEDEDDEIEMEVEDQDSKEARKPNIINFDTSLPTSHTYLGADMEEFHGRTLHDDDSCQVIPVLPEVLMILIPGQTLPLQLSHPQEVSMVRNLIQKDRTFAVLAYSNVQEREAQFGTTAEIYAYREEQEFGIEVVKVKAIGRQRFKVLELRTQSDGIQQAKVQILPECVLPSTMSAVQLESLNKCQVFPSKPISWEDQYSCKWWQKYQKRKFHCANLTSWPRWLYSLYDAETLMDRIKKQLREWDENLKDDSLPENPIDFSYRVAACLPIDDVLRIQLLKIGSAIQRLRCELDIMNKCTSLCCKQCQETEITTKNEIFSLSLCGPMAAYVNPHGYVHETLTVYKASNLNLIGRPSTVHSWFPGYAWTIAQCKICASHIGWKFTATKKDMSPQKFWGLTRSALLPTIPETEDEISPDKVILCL

In the case of `O=C1CCC(N2C(=O)c3cccc(NCCCCOC(=O)c4nn(Cc5ccc(Cl)cc5Cl)c5ccccc45)c3C2=O)C(=O)N1` (stereo unspecified), the IC50 in [1] turned out to be 70.3 µM; in [2], 32.2 µM; in data set [3] it was 46.3 µM; in data set [4], 10.2 µM; in [5], 64.2 µM. The compound also returned an Activity in [6] of 22.9%. Further, the Drug uptake entry in data set [7] is listed as “Active”.
For `O=C1CCC(N2C(=O)c3cccc(NCCOCCOCCNC(=O)c4nn(Cc5ccc(Cl)cc5Cl)c5ccccc45)c3C2=O)C(=O)N1` (stereo unspecified), the IC50 in [1] came out at 30.1 µM; in data set [2] it was 22.9 µM; in data set [3], 37.8 µM; in data set [4], 24 µM; in [5], 18.2 µM. For the same compound, in data set [8], the “Ratio IC50” value is on record as 10.9. The compound also registered an Activity in [6] of 30.6%.
For the compound `C[C@@H]1C[C@@H]([C@H](O)CC2CC(=O)NC(=O)C2)C(=O)[C@@H](C)C1`, the result in data set [9] was Active.
Take `CC(C)C[C@@H](C=O)NC(=O)[C@H](CC(C)C)NC(=O)[C@H](CC(C)C)NC(=O)OCc1ccccc1` (Cbz-Leu-Leu-Leu-aldehyde): in data set [10], the outcome was Active.
Take `O=C1CCC(N2C(=O)c3cccc(NCCCNC(=O)c4nn(Cc5ccc(Cl)cc5Cl)c5ccccc45)c3C2=O)C(=O)N1` (stereo unspecified): the IC50 is 12.2 µM in data set [1]; 34.6 µM in [2]; 25.4 µM in data set [3]; 7.22 µM in data set [4]; 18.7 µM in data set [5]. The “Ratio IC50” value in data set [11] was found to be 6.5; in data set [12], 9.8. In data set [6], this compound registered an Activity of 10.8%.
In the case of `O=C(O)c1nn(Cc2ccc(Cl)cc2Cl)c2ccccc12` [LONIDAMINE], the IC50 in data set [1] worked out at 120 µM; in data set [2], 153 µM; in [3], 165 µM; in data set [4], 77.6 µM; in [5] it was 197 µM. Moreover, the Activity is 3.49% in data set [6], 3.24% in data set [16], 10.1% in [17] and 16.5% in [18]. Further, the outcome in data set [13] and in [14] was Active. Also, the viability at 20 µM in data set [15] stood at 70.1%.

One may read the IC50 as the point on the concentration scale where inhibition reaches its midpoint.

Values taken from ChEMBL document CHEMBL5331124, “Degradation of Hexokinase 2 Blocks Glycolysis and Induces GSDME-Dependent Pyroptosis to Amplify Immunogenic Cell Death for Breast Cancer Therapy” (J Med Chem, 2023).
